Assay results published in ChEMBL document CHEMBL1153882, “Prediction of convulsant activity of gases and vapors” (2009).

organism: Rattus norvegicus; assay: Convulsant activity in Sprague-Dawley rat assessed as partial pressure in atmosphere at which convulsion takes place; assay type: functional

Structure (SMILES) | log(1/CON)
FC(F)OC(F)(C(F)F)C(F)(F)F (centres undefined) | 1.25
FC(F)(Br)C(F)(F)C(F)(F)C(F)(F)Br | 1.86
FC1(F)C(F)(F)[C@@](F)(Cl)[C@@]1(F)Cl | 1.41
FC(F)(Cl)OC(F)(Cl)C(F)(F)F (centres undefined) | 0.71
FC1(F)C(F)(F)[C@@](F)(Cl)[C@]1(F)Cl (relative stereo) | 1.19
FC(F)(F)COC(F)(F)Cl | 1.63
FC(F)(Cl)C(F)(Cl)Cl | 1.36
FC(F)(Cl)OC(F)(F)C(F)(F)Cl | 0.68
COC(F)(F)C(F)(C(F)(F)F)C(F)(F)F | 0.67
FC(F)(F)C(F)(Cl)C(F)(F)F | -0.26
FC(F)(F)C(F)(F)Cl [CHLOROPENTAFLUOROETHANE] | -0.32
FC(F)(Cl)OC(F)(F)C(F)(Cl)Cl | 1.52
FC(F)(Cl)C(F)(Cl)C(F)(F)Cl | 1.31
FC(F)C(F)(F)C(F)(F)C(F)(F)F | 0.12
FC(F)OC(F)(Cl)C(F)(F)F (centres undefined) | 0.84
Fc1c(F)c(F)c(C(F)(F)F)c(F)c1F [PERFLUOROTOLUENE] | 3.46
CCCCCCCCC [NONANE] | 2.8
FC1(F)C(F)(F)C(F)(Cl)C1(F)Cl (racemic) | 1.26
FC(F)(F)c1cc(C(F)(F)F)cc(C(F)(F)F)c1 | 1.85
CCCCC [PENTANE] | 1.16
CCCCCCCC [OCTANE] | 2.18
FC(F)(Cl)OC(Cl)(Cl)C(F)(F)F | 1.61

Structure (SMILES) | log(1/CON)
FC(F)C(F)(F)C(F)(F)C(F)(F)C(F)(F)C(F)(F)Br | 1.68
FC(F)(Cl)C(F)(Cl)C(F)(Cl)C(F)(F)Cl (centres undefined) | 2.52
FC(F)(F)C(F)(F)C(F)(F)F [PERFLUTREN] | -0.88
CC(F)(F)C(F)(F)F | 0.02
C1CCCCCCC1 [CYCLOOCTANE] | 2.82
FC(F)(F)C(F)(Br)C(F)(F)F | 0.13
C1CCCCC1 [CYCLOHEXANE] | 1.66
FC(F)(F)COC(F)(F)F | 0.66
COC(F)(F)C(F)(F)C(F)(F)C(F)(F)F | 0.67
C1CCCCCC1 [CYCLOHEPTANE] | 2.34
FC(F)(Cl)C(F)(F)Cl [DICHLOROTETRAFLUOROETHANE] | 0.41
FC(F)(F)COCC(F)(F)F [FLUROTHYL] | 2.81
Fc1ccc(F)cc1 | 2.22
FC(F)(F)C(F)(Cl)C(F)(Cl)C(F)(F)F (centres undefined) | 1.04
FC(F)(F)C(F)(F)C(F)(F)C(F)(F)Br | 0.59
FC(Cl)(Cl)OC(F)(F)C(F)(F)Cl | 1.36
FC(F)(F)C(F)(F)C(F)(F)Br | 0.03
FC(C(F)C(F)(F)C(F)(F)C(F)(F)F)C(F)(F)F (centres undefined) | 2.31
FC1(F)C(F)(F)C(F)(F)C1(F)F [PERFLUOROCYCLOBUTANE] | 0.01
FC(F)(Br)Br [DIBROMODIFLUOROMETHANE] | 1.59
FCOC(F)(F)C(C(F)(F)F)C(F)(F)F | 1.43
FC(F)(F)C(F)(F)Br [BROMOPENTAFLUOROETHANE] | 0.02
